This is an account of results in patent US10590422B2, “Anticancer therapeutic intervention” (PHYZAT BIOPHARMACEUTICALS, LDA., priority 2017, dated 2020).

The test system of one series is ASCT2. Description: ASCT2 activity: [^14C]-L-alanine uptake in fibrosarcoma HT-1080 cells after ASCT2 gene silencing. It counts as cell-based, human. Particulars: at 48 h. The method, then:
(§1) Cells were plated in 24-well plates (Sarstedt, Germany) and grown until confluence was reached. On the day of the experiment, Cell culture medium was aspirated and cells were preincubated for 15 min in Hanks' medium (ChCl 140 mM, KCl 5 mM, MgSO4.7H2O 0.8 mM, K2HPO4 0.33 mM, KH2PO4 0.44 mM, MgCl2.6H2O 1 mM, CaCl2) 0.025 mM, Tris-HCl 9.75 mM, pH 7.4). Uptake was initiated by the addition of Hanks' medium with 0.25 μM [^14C]-L-alanine in the absence and in the presence of 3 mM unlabeled L-alanin. During preincubation and incubation cells were continuously shaken and maintained at 37° C. Uptake was terminated after 1 min by rapid removal of uptake solution by means of a vacuum pump connected to a Pasteur pipette, followed by a rapid wash with Hanks' medium. Subsequently, cells were solubilized in 0.1% vol/vol Triton X-100 (dissolved in 5 mM Tris-HCl, pH 7.4), and radioactivity was measured by liquid scintillation counting.
(§2) Cells were plated in 24-well (Sarstedt, Germany) or 6-well plates (Sarstedt, Germany) or 96-well plates with black walls clear bottom (BD Biosciences, USA) and incubated 24 h under normal growth conditions. siRNAs against ASCT2 and transfection agent were diluted at desired concentrations and mixed according to transfection agent manufacturer's instructions. The mixture was incubated 20 min at RT for siRNA-complex formation, after which it was added to the cells and incubated at 37° C., 5% CO2. After the incubation period, serum and antibiotic was restored and cells were further incubated at normal conditions for the desired time points until evaluation of ASCT2 activity or ASCT2 expression (immunoblotting and RT-qPCR).

A further series deals with ASCT2 mRNA. Description: ASCT2 gene expression (RT-qPCR) after ASCT2 gene silencing in human colon cancer HTC-116 cells. In kind it is cell-based. Conditions: treatment 6 h. How it is done:
SK-HEP-1, T24, HT-1080 and HCT-116 cell lines were maintained in a humidified atmosphere of 5% CO2 at 37° C. SK-HEP-1 cells were grown in RPMI-1640 (Sigma, St. Louis, Mo.) supplemented with 20% fetal bovine serum (FBS) (Gibco, UK), 100 U/mL penicillin G, 0.25 μg/mL amphotericin B, 100 μg/mL streptomycin (Gibco, UK), 25 mM sodium bicarbonate (Merck, Germany) and 25 mM N-2-hydroxyethylpiperazine-N′-2-ethanosulfonic acid (HEPES) (Sigma, St. Louis, Mo.). T24 and HT-1080 cells were grown, respectively, in Dulbecco's Modified Eagle's Medium (DMEM)—high glucose (Sigma, St. Louis, Mo.) and DMEM—low glucose (Sigma, St. Louis, Mo.), supplemented with 10% FBS (Gibco, UK), 100 U/mL penicillin G, 0.25 μg/mL amphotericin B, 100 μg/mL streptomycin (Gibco, UK), 25 mM sodium bicarbonate (Merck, Germany) and 25 mM HEPES (Sigma, St. Louis, Mo.). HCT-116 cells were grown in McCoy's 5A (Sigma, St. Louis, Mo.) supplemented with 10% FBS (Gibco, UK), 100 U/mL penicillin G, 0.25 μg/mL amphotericin B, 100 μg/mL streptomycin (Gibco, UK), 25 mM sodium bicarbonate (Merck, Germany) and 25 mM HEPES (Sigma, St. Louis, Mo.). For all cell lines the medium was changed every 2 days, and cells reached confluence 3-4 days after initial seeding. For subculturing, cells were dissociated with 0.25% trypsin-ethylenediaminetetraacetic acid (EDTA) (Sigma, St. Louis, Mo.), split 1:15 or 1:20 and subcultured in a 21-cm^2 growth area (Sarstedt, Germany).
Total RNA was isolated and purified using the SV Total RNA Isolation System (Promega, USA) according to manufacturer's instructions. RNA quality and concentration were verified in the NanoDrop ND1000 Spectrophotometer (Thermo Scientific, USA), and RNA integrity and genomic DNA contamination were evaluated by agarose gel electrophoresis. Total RNA (1 μg) was converted into cDNA using the Maxima Scientific First Strand cDNA Synthesis Kit for RT-qPCR (Thermo Scientific, USA), according to instructions. The following protocol was used: 1st step, 10 min at 25° C.; 2nd step, 15 min at 50° C.; 3rd step, 5 min at 85° C. cDNA was used for qPCR analysis using Maxima SYBR Green qPCR Master Mix (Thermo Scientific, USA) in the StepOnePlus instrument (Applied Biosystems, USA). QuantiTect Primer Assay for LAT1 and ASCT2 and for the endogenous control gene GAPDH (Quiagen, Germany) were used. The qPCR reaction was performed in 96-well PCR plates (Sarstedt, Germany) as follows: one cycle of 10 min at 95° C., followed by 40 PCR cycles at 95° C. 15 s and 60° C. 60 s. […] No template controls were always evaluated for each target gene. Quantification cycle (Cq) values were generated automatically by the StepOnePlus 2.3 Software and the ratio of the target gene was expressed in comparison to the endogenous control gene GAPDH.
as §2
(Real-time PCR tracks product formation cycle by cycle.)

The test system of a further series is LAT1. As to the kind of experiment: LAT1 activity: [^14C]-L-leucine uptake in fibrosarcoma HT-1080 cells after LAT1 gene silencing. Conditions: 5 nM siRNA, treatment 6 h, at 48 h, 0.4% Lipofectamine 2000, FIG. 8A. It counts as cell-based, human. How it is done:
as §1, with “experiment, cell” for “experiment, Cell”, “medium (NaCl” for “medium (ChCl”, “by” for “by the”, “μM [^14C]-L-leucine” for “μM [^14C]-L-alanine”, “unlabeled L-leucine.” for “unlabeled L-alanin.”
as §2, with “LAT1” for “ASCT2”

“278/403/404 (sense UGCCACGGUCGCCUCUGAGAATT; antisense UUCUCAGAGGCGACCGUGGCATT; siRNA; sugars by position and backbone not given here; further chemistry not fully specified)”: the “Effect on [^14C]-L-alanine uptake compared with SEQ ID NO: 267/397/398” value in the series on ASCT2 (HT-1080 cells, 5 nM, p<0.05) was “significantly greater”. Besides, the “[^14C]-L-alanine (0.25 μM) uptake at initial rate of uptake (1 min)” value in the series on ASCT2 (fibrosarcoma HT-1080 cells, 5 nM siRNA, treatment 6 h, 0.4% Lipofectamine 2000, FIG. 8B) is given as “decreased”. The “ASCT2 mRNA relative abundance” value with ASCT2 mRNA (5 or 25 nM siRNA, at 24 h or 48 h, 0.5% Lipofectamine 2000, FIGS. 9B and 9C) is given as “decreased”; in the series with ASCT2 mRNA (72 h, 0.17% Lipofectamine 2000 or 0.1% Injectin, FIG. 20A) it was “significantly decreased”.
In the case of “58/387/388 (sense CUUCGCCACCUACCUGCUCAATT; antisense UUGAGCAGGUAGGUGGCGAAGTT; siRNA; sugars by position and backbone not given here; further chemistry not fully specified)”, the “[^14C]-L-leucine (0.25 μM) uptake at initial rate of uptake (1 min)” value in the series with LAT1 is on record as “decreased”.
